Experiment [1] deals with T1, Orco (Drosophila melanogaster, UniProt Q9VNB5).
T1 construct: native OrX/OrcoWT in olfactory sensory neurons, ex vivo antenna; with OrX
T1 sequence (Q9VNB5 1-486): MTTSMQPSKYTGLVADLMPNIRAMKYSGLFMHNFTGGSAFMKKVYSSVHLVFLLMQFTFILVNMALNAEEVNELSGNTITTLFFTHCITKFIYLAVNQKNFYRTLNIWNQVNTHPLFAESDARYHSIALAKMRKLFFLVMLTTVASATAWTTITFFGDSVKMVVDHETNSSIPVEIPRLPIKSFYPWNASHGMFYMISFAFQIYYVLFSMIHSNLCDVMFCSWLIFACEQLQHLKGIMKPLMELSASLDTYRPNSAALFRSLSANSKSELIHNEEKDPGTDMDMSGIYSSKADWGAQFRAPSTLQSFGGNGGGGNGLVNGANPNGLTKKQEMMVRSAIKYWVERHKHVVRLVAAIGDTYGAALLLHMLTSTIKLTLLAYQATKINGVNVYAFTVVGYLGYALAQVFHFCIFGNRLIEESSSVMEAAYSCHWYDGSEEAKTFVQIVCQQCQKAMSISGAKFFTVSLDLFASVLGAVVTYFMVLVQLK
Kind of experiment: GCaMP6f Ca2+ imaging of OSNs, concentration-response.

For experiment [2], the target named is T2, Orco (Drosophila melanogaster, UniProt Q9VNB5, K339N).
T2 construct: OrX/OrcoK339N in olfactory sensory neurons (Orco1 null background), ex vivo antenna; with OrX
T2 sequence (Q9VNB5 whole entry K339N): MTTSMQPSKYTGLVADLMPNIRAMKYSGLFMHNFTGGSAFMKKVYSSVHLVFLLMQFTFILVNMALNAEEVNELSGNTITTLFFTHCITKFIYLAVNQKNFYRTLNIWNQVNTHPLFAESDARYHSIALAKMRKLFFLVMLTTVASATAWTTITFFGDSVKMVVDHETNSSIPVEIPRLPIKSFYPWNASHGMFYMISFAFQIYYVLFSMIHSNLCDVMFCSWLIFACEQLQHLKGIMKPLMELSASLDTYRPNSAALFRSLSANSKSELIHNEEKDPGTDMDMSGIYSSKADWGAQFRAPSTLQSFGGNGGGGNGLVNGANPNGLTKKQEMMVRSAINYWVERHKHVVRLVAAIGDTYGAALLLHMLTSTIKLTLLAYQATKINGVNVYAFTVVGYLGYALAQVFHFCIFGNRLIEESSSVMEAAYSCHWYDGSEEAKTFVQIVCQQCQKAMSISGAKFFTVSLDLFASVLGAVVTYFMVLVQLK
Described as above.

For another experiment, the target named is T3, Or22a (Drosophila melanogaster, UniProt P81909).
T3 construct: Or22a/OrcoWT in Or22a-expressing olfactory sensory neurons, ex vivo antenna; with Orco
T3 sequence (P81909 1-397): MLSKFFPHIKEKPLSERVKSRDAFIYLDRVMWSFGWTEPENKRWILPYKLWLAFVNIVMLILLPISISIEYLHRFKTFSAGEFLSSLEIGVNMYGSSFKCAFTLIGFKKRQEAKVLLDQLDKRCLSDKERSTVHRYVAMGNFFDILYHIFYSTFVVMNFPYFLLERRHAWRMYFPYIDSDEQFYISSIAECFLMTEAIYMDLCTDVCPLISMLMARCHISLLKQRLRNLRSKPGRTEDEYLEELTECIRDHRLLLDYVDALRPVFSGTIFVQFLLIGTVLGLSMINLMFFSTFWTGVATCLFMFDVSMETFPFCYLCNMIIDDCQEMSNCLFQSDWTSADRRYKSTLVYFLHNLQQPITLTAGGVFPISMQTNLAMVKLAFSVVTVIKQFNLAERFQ
T3 sequence (Q9VNB5 1-486 partner): T1 sequence (Q9VNB5 1-486)
Kind of experiment: GCaMP6f Ca2+ imaging of Or22a OSNs, concentration-response.

By EC50 is commonly meant the concentration giving half of the maximal effect. Low values mean higher potency in that assay, high ones lower potency in that assay.

In the case of `CCc1ccc(NC(=O)CSc2nnc(-c3cccnc3)n2CC)cc1` [VUAA1, 2-(4-Ethyl-5-(pyridin-3-yl)-4H-1,2,4-triazol-3-ylthio)-N-(4-ethylphenyl) acetamide], the concentration for a half-maximal effect (EC50) at Orco [1] came to 88 µM; on Orco [2], 85 µM.
For the compound `CCCCCC(=O)OCC` [ethyl hexanoate], the EC50 at Or22a came to 13 µM.

Source of the values: article PMC7881240, “Calmodulin regulates the olfactory performance in Drosophila melanogaster” (Scientific Reports, 2021).
